# Laboratory results from PubChem BioAssay AID2384 (Southern Research Specialized Biocontainment Screening …, 2010).
# Values joined by “and” are separate entries in the source; they are usually repeats but may differ in a detail not shown here. Identical values can stand only once.
# Tested on: S. typhi GFP reporter counter-screen, fluorescence, 4 h
# Test: inhibitors in S. typhi counter-screen strain, dose response, counter-screen for PhoP regulon inhibitor project, fluorescence, 4 h (AID 2384)
row,SMILES,IC50
1,COc1ccc(Nc2cc(C)nc(NCc3ccccc3)n2)cc1,38.5 µM
2,[O-][n+]1cccc2c(Br)cc(Br)c(O)c21,36.6 µM
3,CCCc1nnc(NC(=O)c2cn(CC)c3cc(N4CCN(C)CC4)c(F)cc3c2=O)s1,61.6 µM
4,CCOc1ccc(Nc2nc(N)c3ccccc3n2)cc1,44.4 µM
5,CCCN(CCC)CCNC(=O)C1CCN(Cc2nc(-c3ccc(Cl)cc3)oc2C)CC1,57.1 µM
6,Nc1cccc2nc3ccccc3cc12,68.7 µM
7,CN(Cc1ccccc1)CC(O)COc1ccc(CNCCCOc2cccnc2)cc1 (centres undefined),53.3 µM
8,OCCN1CCN(CCCN2c3ccccc3Sc3ccc(Cl)cc32)CC1,73.7 µM
9,CC(C)C1N=C(c2ccc3c(c2)OCO3)CC(c2ccccc2O)N1 (centres undefined),117 µM
10,O=C(CSc1nc2ccccc2s1)N/N=C/c1cc([N+](=O)[O-])ccc1O,60.8 µM
11,O=C1NCCN1c1ncc([N+](=O)[O-])s1,28.2 µM
12,CN(C)CCCNC(=O)c1ccc(-c2nc(-c3ccc(Cl)cc3)cs2)cc1,19.7 µM
13,CN1CCN(C(c2cccc(Cl)c2)c2ccccc2Cl)CC1 (centres undefined),68.2 µM
14,O=C(O)c1ccc(N2C(=O)CC(N3C(=O)/C(=C/c4ccc(Cl)cc4)SC3=S)C2=O)cc1 (centres undefined),23.7 µM
15,CN1CCC(OC(=O)c2ccc(Cl)cc2Cl)CC1,36.8 µM
16,O=C(N/N=C/c1ccc([N+](=O)[O-])s1)C(O)c1ccccc1 (centres undefined),32.1 µM
17,CCn1cc(C(=O)O)c(=O)c2cc(F)c(N3CCN(C(=S)NC(=O)c4ccccc4)CC3)cc21,78.2 µM
18,CN(C)[C@@H]1C(=O)C(C(N)=O)=C(O)[C@@]2(O)C(=O)C3=C(O)c4c(O)cccc4[C@@](C)(O)C3[C@H](O)C12 (some centres undefined),0.31 µM and 1.78 µM
19,Nc1cc2c3c(cccc3c1)C(=O)N(CCN1CCCC1)C2=O,129 µM
20,O=C(NNc1nc2ccc(F)cc2s1)c1cccc(F)c1,46.8 µM
21,C#CCOCCOCCOCCNc1nc(N2CCN(C(=O)[C@H]([C@@H](C)CC)n3cc([C@@H](N)CO)nn3)CC2)nc(N2CCN(C(=O)[C@H](Cc3cc4ccccc4[nH]3)n3cc([C@@H](N)Cc4ccc(O)cc4)nn3)CC2)n1,49.7 µM
22,COc1cc(CNC2CCCC2)cc(Cl)c1OCc1ccccc1Cl,38 µM

row,SMILES,IC50
1,NCCCC[C@H]1CN=C(N)N1CCC12CC3CC(CC(C3)C1)C2,86.4 µM
2,Cc1nnc(N/N=C/c2ccccn2)[nH]c1=O,31.4 µM
3,O=C(COc1ccc(Br)cc1CNCCc1ccccc1)NCc1ccccc1,105 µM
4,C#CCOCCOCCOCCNc1nc(N2CCN(C(=O)CCCCCCCCCCNC(=O)Cn3cc(C[C@@H](C)O)nn3)CC2)nc(N2CCN(C(=O)CCCCCCCCCCNC(=O)[C@@H]([C@H](C)CC)n3cc(CCCCCN)nn3)CC2)n1,141 µM
5,COc1ccc2[nH]c3c(C)c4ccncc4c(C)c3c2c1,21.5 µM
6,OCCCCNCc1ccc(OCc2ccccc2Cl)cc1,86 µM
7,CCCCn1c(=N)n(CC(=O)c2ccc(Br)s2)c2ccccc21,45.1 µM
8,O=[N+]([O-])c1ccc(N2CCNCC2)cc1NCc1cccnc1,73.8 µM
9,CCOC(=O)N1CCN(Cc2cc(Cl)c3cccnc3c2O)CC1,47.4 µM
10,Nc1nc(Nc2ccc(Cl)cc2)nc2ccccc12,17 µM
11,Cc1ccc(-c2cc(-c3ccc(C)cc3)[n+](-c3ccccc3)c(-c3ccc(C)cc3)c2)cc1,23.6 µM
12,O=C(C[n+]1cc(-c2ccc(Cl)cc2)n2c1CCC2)Nc1nc(-c2ccccc2)cs1,20.1 µM
13,CC1CCN(CCCNC(=O)c2ccc3c(=O)n(Cc4ccc(Cl)cc4)c(=S)[nH]c3c2)CC1,47.8 µM
14,Oc1ccc(N=Nc2ccc(Br)cc2)c(O)c1,100 µM
15,CC(=O)NC(c1ccc2ccccc2c1)c1ccc2cccnc2c1O (centres undefined),66.7 µM
16,CCN1CCN(Cc2ccc(NC(=O)c3ccc(C)c(NC(=O)c4c[nH]c5cc(C(F)(F)F)ccc5c4=O)c3)cc2C(F)(F)F)CC1,34.9 µM
17,Cc1cc(C)nc(/N=C(\N)Nc2ccc(SC(F)F)cc2)n1,51.3 µM
18,O=C1NCCCC1C(=O)N/N=C/c1cc([N+](=O)[O-])ccc1O (centres undefined),67.2 µM
19,O=C(CSC1=NC(=O)C(c2ccccc2)C(=O)N1)Nc1cccc(Cl)c1 (centres undefined),80.2 µM
20,C=CCNc1ncnc2c1[nH]c1ccc(Cl)cc12,37.2 µM
21,C#CCOCCOCCOCCNc1nc(N2CCN(C(=O)CCCCCCCCCCNC(=O)[C@H](CO)n3cc(CCCCCN)nn3)CC2)nc(N2CCN(C(=O)CCCCCCCCCCNC(=O)[C@H](CCCN=C(N)N)n3cc(C[C@@H](C)CC)nn3)CC2)n1,19.5 µM
22,O=C(CSc1nc2ccccc2[nH]1)Nc1ccc(F)c(F)c1,74.2 µM

row,SMILES,IC50
1,Fc1ccc([C@@H]2CCNC[C@H]2COc2ccc3c(c2)OCO3)cc1,19.2 µM
2,O=c1cc(-c2ccccc2)cc(-c2ccccc2)n1O,32.3 µM
3,N=C(N)c1ccc(/C=C/c2ccc(C(=N)N)cc2O)cc1,10.5 µM
4,CC1CCC(C(C)C)C(OC(=O)C[n+]2cc(-c3ccc(Cl)cc3)n3c2CCC3)C1 (centres undefined),40.3 µM
5,Clc1cc(Br)ccc1OCCCNCc1ccccc1,39.3 µM
6,O=C(Nc1cccc(N=Cc2cc(Cl)cc(Br)c2O)c1)c1ccco1,60 µM
7,Cc1cc(O)c2c(c1)C(=O)C13C(=C2O)C(=O)[C@H]2[C@@H](O)[C@@H]1[C@H]1[C@H](O)[C@@H]3C(=O)C3=C(O)c4c(O)cc(C)cc4C(=O)C312 (some centres undefined),7.46 µM
8,O=C(Oc1ccccc1)c1cc2ccccc2o1,97 µM
9,Oc1[nH]c2ccccc2c1N=NC(=S)N1CCOCC1,21.2 µM
10,CN(C)c1ccc(/C=C/c2ccc3ccccc3[n+]2C)cc1,19.1 µM
11,O=C(N/N=C\c1ccc(Cl)s1)c1cccs1,90.8 µM
12,NC(N)=N/N=C/c1ccc(OCc2ccc(Cl)cc2Cl)cc1,10.3 µM
13,CCN(CC)c1ccc(CNc2nc3ccccc3n2CCN2CCCCC2)cc1,43.5 µM
14,O=C(N/N=C/c1ccccc1O)c1ccncc1,20.5 µM
15,CCCCOc1ccc(C(=O)NNC(=S)NC(=O)CC)cc1,33.6 µM
16,O=C1C=CC(=O)N1CCCCCCN1C(=O)C=CC1=O,79.8 µM
17,OCCNc1nc(Nc2ccccc2)nc2ccccc12,22.4 µM
18,CCCOc1ccc(S(=O)(=O)n2cc(F)c(=O)[nH]c2=O)cc1,139 µM
19,Cc1ccc(C(=O)N/N=C\c2sccc2C)cn1,136 µM
20,CCn1cc(C(=O)O)c(=O)c2cc(F)c(N3CCN(C(=S)NC(=O)c4cc(OC)cc(OC)c4)CC3)cc21,143 µM
21,C#CCOCCOCCOCCNc1nc(N2CCN(C(=O)CCCCCCCCCCNC(=O)[C@H]([C@@H](C)CC)n3cc(CCCCCN)nn3)CC2)nc(N2CCN(C(=O)CCCCCCCCCCNC(=O)[C@H]([C@@H](C)CC)n3cc(CCCCN=C(N)N)nn3)CC2)n1,25 µM
22,C/C(=N\NC(=O)c1cccc(Br)c1)c1ccccn1,31.6 µM

row,SMILES,IC50
1,Cn1c(CN2CCCC2)nc2cc(NC(=O)COc3ccc(Cl)cc3)ccc21,128 µM
2,Clc1ccc(OCCCNCc2ccccc2)c2ccccc12,18.3 µM
3,Cc1ccc(-n2c(-c3ccc(Br)cc3)c[n+]3c2CCc2ccc4cccnc4c2-3)cc1,40.6 µM
4,COc1c(N2CCN(C(=S)NC3CC4CCC3C4)C(C)C2)c(F)cc2c(=O)c(C(=O)O)cn(C3CC3)c12 (centres undefined),44.1 µM
5,CCCCCCCCCCOC(=O)Cn1c(COc2ccc(C)cc2)[n+](C)c2ccccc21,18.3 µM
6,CCCCCCCCCCCCCCCC[N+](C)(C)CCN(Cc1ccc(OC)cc1)c1ncccn1,19.1 µM
7,CC(C(=O)NC1CCS(=O)(=O)C1)N1C(=O)/C(=C/c2ccc(Cl)cc2)SC1=S (centres undefined),18.2 µM
8,CCCCCC[N+](C)(C)CC/C=C1/c2ccccc2Sc2ccc(Cl)cc21,26.2 µM
9,O=C(N[C@H](CO)[C@H](O)c1ccc([N+](=O)[O-])cc1)C(Cl)Cl,1.57 µM
10,CC(=O)Nc1ccc(S(=O)(=O)NNc2cccc(C)c2)cc1,27.5 µM
11,CCn1cc(C(=O)O)c(=O)c2cc3c(cc21)OCO3,80.8 µM
12,O=C(/C=C/c1ccccc1Cl)c1ccccc(=O)c1O,28 µM
13,Cc1ccc(C(=O)NNC(=S)NC(=O)c2ccccc2)cc1,57.8 µM
14,CC(C)(c1ccccc1)c1ccc(OCCCN2CCNCC2)cc1,39.7 µM
15,COc1ccc(CNCC(O)COc2ccc(C(C)(C)c3ccccc3)cc2)cc1 (centres undefined),20.4 µM
16,CCN1/C(=C/C(C)=C/c2sc3ccccc3[n+]2CC)Sc2ccccc21,3.1 µM
17,CCN1CCN(Cc2ccc(NC(=O)c3cc(NC(=O)c4cc(-c5ccc(OC)cc5)n[nH]4)cc(OC)c3)cc2C(F)(F)F)CC1,145 µM
18,O=[N+]([O-])c1cc(CN2CCN(c3cccc(C(F)(F)F)c3)CC2)c2cccnc2c1O,23.1 µM
19,O=C(Nc1nc(-c2ccccn2)cs1)c1ccc(Cl)s1,21.3 µM
20,CCCCCCCCC[n+]1cccc2c3ccccc3ccc21,15.1 µM
21,COc1ccc(CNCCC(c2ccccc2)c2ccc3c(c2)OCO3)cc1 (centres undefined),73.4 µM
22,Oc1c(C(Nc2ccccn2)c2cccnc2)cc(Cl)c2cccnc12 (centres undefined),25.5 µM

row,SMILES,IC50
1,Cc1ccc(C(=O)N/C(=C\c2ccc(-c3ccc(Br)cc3)o2)C(=O)NCCCN(C)C)cc1,37.4 µM
2,OCCNCc1cc(Br)ccc1OCc1ccc(Cl)cc1,34.7 µM
3,C=C1c2c(Cl)ccc(O)c2C(O)=C2C(=O)[C@]3(O)C(O)=C(C(N)=O)C(=O)[C@@H](N(C)C)[C@@H]3[C@@H](O)C12 (some centres undefined),0.24 µM
4,Cc1ccc(NNS(=O)(=O)c2ccc(C)cc2)cc1,111 µM
5,O=S1(=O)Nc2c(ccc3cccnc23)-c2ccccc21,3.32 µM
6,Nc1c(Cl)ncnc1N/N=C/c1ccccn1,32.9 µM
7,Cc1ccc(C(C[N+](=O)[O-])n2nc(C)cc2C)cc1 (centres undefined),27.1 µM
8,COc1cccc(/C=N\NC(=O)Cn2nnc3ccccc32)c1O,94.6 µM
9,Cc1cc(C)c2sc(N(CCCN(C)C)C(=O)COc3ccc(Cl)cc3)nc2c1,34.8 µM
10,O=C(NC(CO)C(O)c1ccc([N+](=O)[O-])cc1)C(Cl)Cl (centres undefined),3.02 µM
11,C[n+]1c2n(c3ccccc31)N=C(c1ccc(-c3ccccc3)cc1)CS2,26.4 µM
12,OC(CNCCc1ccc(Cl)cc1)COc1cc(Cl)ccc1Cl (centres undefined),80.6 µM
13,N#C/C(N=Nc1ccccc1O)=N\Nc1ccccc1O,20.2 µM
14,O=C(N/N=C/c1cc(Cl)ccc1O)c1cccnc1,20.9 µM
15,c1ccc2c(NCCc3c[nH]c4ccccc34)c3ccccc3nc2c1,36.9 µM
16,Oc1cc(Cl)ccc1Oc1ccc(Cl)cc1Cl,< 0.55 µM
17,CCNC(=O)Oc1ccc[nH]c1=O,53.8 µM
18,Nc1nc(Nc2ccccc2)nc2ccccc12,42.4 µM
19,CCCCCCCCCn1c2c(c(=N)c3c1CCC3)CCC2,10.6 µM
20,O=C(Nc1cccc(Cl)c1)Nc1nccs1,57.3 µM
21,Clc1ccc(CNCc2cccs2)cc1Cl,45.4 µM
